From patent US20140005268A1, “PHARMACEUTICAL COMPOSITION FOR TREATING OXIDATIVE STRESS-INDUCED PATHOLOGY AND USE THEREOF” (priority 2011, published 2014) come the findings set out here.

The subject of this experiment is hemorrhoids (Goligher type I, II, III and IV). Description: Clinical test of rectally administered suppositories in volunteers with hemorrhoids (Goligher's classification). The settings on record: adult human beings of both genders, 20 to 80 years old, daily dosage as in Table 1, average ± standard error, n=20. It is filed as in vivo. How it is done:
For such, various volunteers were randomly selected.
In short, volunteers, aging from 20 to 80 years old, were tested and observed for 28 days by rectally administering suppositories of 2 g each, containing the active ingredients in the indicated proportion: methionine (170 mg/day), cysteine (20 mg/day) and phenylalanine (10 mg/day) each.
The indicated values in the Table are average values in 20 experiments±standard errors (n=20).

On to `N[C@@H](CS)C(=O)O` [L-cysteine], for which the “Bleeding inhibition after 72 h (%)” value is listed as 10 ± 1% and the “Relapse after 5 years (%)” value is on record as 80 ± 8%.

In the case of `N[C@@H](Cc1ccccc1)C(=O)O` [L-phenylalanine], the “Bleeding inhibition after 72 h (%)” value amounted to 2 ± 1% and the “Relapse after 5 years (%)” value turned out to be 90 ± 9%.

Consider `CSCC[C@H](N)C(=O)O` [L-methionine], for which the “Bleeding inhibition after 72 h (%)” value was 70 ± 7% and the “Relapse after 5 years (%)” value is listed as 15 ± 2%.
